For this experiment, the target named is human GCGR (Homo sapiens (Human), UniProt P47871). The experiment in a line: Cellular functional assay, cAMP readout (glucagon-stimulated cAMP in HEK293 cells expressing human GCGR). The experiment is classed as cell-based. Conditions: hGluc-1 HEK cells, LANCE TR-FRET, IC50 converted to Ki, average if tested more than once. As for the experimental part:
IC50 Values in Cellular Functional Assays: cAMP Readout
Full-length human GCGR (Accession Number: NM000160) subcloned into pcDNA3.1 was stably transfected into HEK293 cells (hGluc-1 HEK) and maintained under G418 selection (500 μg/mL). Cell cultures were maintained in DMEM/F12 media supplemented with 10% FBS and 1% GlutaMax. Glucagon stimulated cAMP was quantified using LANCE technology as per manufacturer instructions. On the day of the experiment, spent media was removed and cells were washed with Hank's Buffered Saline solution (HBSS) and cells were harvested with non-enzymatic cell dissociation solution, then washed once with HBSS. Cells were re-suspended in stimulation buffer at a concentration of 0.83×10^6 cells/ml and cAMP detection antibody was added. 6 μl/well of this solution was then dispensed in a 384 well plate (cell density 5000 cells/well). Test compound was serially diluted in DMSO and 50 nl were dispensed on top of the cell solution and allowed to incubate for 30 minutes. 6 μl of a 2× glucagon solution (final concentration in assay […]) was then added and the reaction was terminated after 5 minutes with the addition of detection mix. The mixture was incubated, protected from light for 1.5 h. cAMP levels were quantified by TR-FRET in an EnVision instrument against a known standard. IC50's were generated by using a non-linear regression macro driven in Excel and converted to K, values.
In general terms: In TR-FRET formats the signal depends on donor and acceptor labels being close together.

Chain of human GCGR (P47871 26-477): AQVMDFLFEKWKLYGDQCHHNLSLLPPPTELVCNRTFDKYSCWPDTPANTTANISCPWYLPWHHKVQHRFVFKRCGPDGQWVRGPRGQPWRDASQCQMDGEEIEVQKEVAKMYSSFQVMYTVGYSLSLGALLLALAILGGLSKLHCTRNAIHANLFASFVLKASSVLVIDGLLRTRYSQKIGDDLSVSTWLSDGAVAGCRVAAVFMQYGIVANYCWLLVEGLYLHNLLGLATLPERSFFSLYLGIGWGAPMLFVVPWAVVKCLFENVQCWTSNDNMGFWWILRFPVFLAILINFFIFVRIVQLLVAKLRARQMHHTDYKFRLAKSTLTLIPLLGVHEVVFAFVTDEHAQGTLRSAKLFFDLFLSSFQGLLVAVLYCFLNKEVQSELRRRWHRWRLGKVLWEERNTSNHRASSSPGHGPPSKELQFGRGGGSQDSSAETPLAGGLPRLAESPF

A word on the Ki: it is a measure of affinity in units of concentration, obtained from inhibition or displacement. A low value points to tighter binding. Turning to `Cc1cc(Cl)ccc1-c1ccc(NCc2c(C)cc(C(F)(F)F)cc2-c2ccc(C(=O)NCCC(=O)O)nc2)cc1Cl` [Compound 165, 3-(5-(2-(((2,4′-dichloro-2′-methyl-[1,1′-biphenyl]-4-yl)amino)methyl)-3-methyl-5-(trifluoromethyl)phenyl)picolinamido)propanoic acid], the affinity corresponds to a Ki of 6.4 nM.
`COc1ccc(CNc2ccc(-c3ccc(Cl)cc3Cl)cc2)c(-c2ccc(C(=O)NCCC(=O)O)nc2)c1` [Compound 46, 3-(5-(2-(((2′,4′-dichloro-[1,1′-biphenyl]-4-yl)amino)methyl)-5-methoxyphenyl)picolinamido)propanoic acid] showed a Ki above 20000 nM.
For `O=C(O)CCNC(=O)c1ccc(-c2cc(C(F)(F)F)cc(C(F)(F)F)c2CNc2ccc(-c3c(Cl)cccc3Cl)cc2)cn1` [Compound 85, 3-(5-(2-(((2′,6′-dichloro-[1,1′-biphenyl]-4-yl)amino)methyl)-3,5-bis(trifluoromethyl)phenyl)picolinamido)propanoic acid] the value was 32.4 nM; for `Cc1cc(C(F)(F)F)ccc1-c1ccc(NCc2c(-c3ccc(C(=O)NCCC(=O)O)nc3)cc(C(F)(F)F)cc2C(C)C)cc1Cl` [Compound 167], 10.8 nM; for `Cc1cc(Cl)ccc1-c1ccc(NCc2c(-c3ccc(C(=O)NCCC(=O)O)nc3)cc(C(F)(F)F)cc2C2CC2)cc1Cl` [Compound 178, 3-(5-(3-cyclopropyl-2-(((2,4′-dichloro-2′-methyl-[1,1′-biphenyl]-4-yl)amino)methyl)-5-(trifluoromethyl)phenyl)picolinamido)propanoic acid], 6.3 nM.
For `O=C(O)CCNC(=O)c1ccc(-c2cc(C(F)(F)F)ccc2CNc2ccc(-c3ccc(C(F)(F)F)cc3Cl)c(C(F)(F)F)c2)cn1` [Compound 128, 3-(5-(2-(((2′-chloro-2,4′-bis(trifluoromethyl)-[1,1′-biphenyl]-4-yl)amino)methyl)-5-(trifluoromethyl)phenyl)picolinamido)propanoic acid] the value was 45.8 nM; for `Cc1cc(C(F)(F)F)cc(-c2ccc(C(=O)NCCC(=O)O)nc2)c1CNc1ccc(-c2ccc(C(F)(F)F)cc2)c(Cl)c1` [Compound 163], 14.4 nM.
For `COc1ccc(CNc2ccc(-c3ccc(C(F)(F)F)cc3)cc2)c(-c2ccc(C(=O)NCCC(=O)O)nc2)c1` [Compound 47, 3-(5-(5-methoxy-2-(((4′-(trifluoromethyl)-[1,1′-biphenyl]-4-yl)amino)methyl)phenyl)picolinamido)propanoic acid] the value was above 20000 nM.
The compound `O=C(O)CCNC(=O)c1ccc(-c2cc(C(F)(F)F)cc(C(F)(F)F)c2CNc2ccc(-c3ccc(Cl)cc3Cl)cc2)cn1` [Compound 87, 3-(5-(2-(((2′,4′-dichloro-[1,1′-biphenyl]-4-yl)amino)methyl)-3,5-bis(trifluoromethyl)phenyl)picolinamido)propanoic acid] came in with a Ki of 17.3 nM.
For `COc1cc(C(F)(F)F)cc(-c2ccc(C(=O)NCCC(=O)O)nc2)c1CNc1ccc(-c2ccc(Cl)cc2)c(Cl)c1` [Compound 162, 3-(5-(2-(((2,4′-dichloro-[1,1′-biphenyl]-4-yl)amino)methyl)-3-methoxy-5-(trifluoromethyl)phenyl)picolinamido)propanoic acid] the value was 46.9 nM.
For `Cc1cc(C(F)(F)F)ccc1-c1ccc(NCc2c(-c3ccc(C(=O)NCCC(=O)O)nc3)cc(C(F)(F)F)cc2C(F)(F)F)cc1` [Compound 83, 3-(5-(2-(((2′-methyl-4′-(trifluoromethyl)-[1,1′-biphenyl]-4-yl)amino)methyl)-3,5-bis(trifluoromethyl)phenyl)picolinamido)propanoic acid] the value was 14.1 nM; for `Cc1cc(C(F)(F)F)ccc1-c1ccc(NCc2c(-c3ccc(C(=O)NCCC(=O)O)nc3)cc(C(F)(F)F)cc2C2CC2)cc1Cl` [Compound 177, 3-(5-(2-(((2-chloro-2′-methyl-4′-(trifluoromethyl)-[1,1′-biphenyl]-4-yl)amino)methyl)-3-cyclopropyl-5-(trifluoromethyl)phenyl)picolinamido)propanoic acid], 5.3 nM.
For `Cc1cc(C(F)(F)F)ccc1-c1ccc(NCc2c(C)cc(C(F)(F)F)cc2-c2ccc(C(=O)NCCC(=O)O)nc2)cc1Cl` [Compound 166, 3-(5-(2-(((2-chloro-2′-methyl-4′-(trifluoromethyl)-[1,1′-biphenyl]-4-yl)amino)methyl)-3-methyl-5-(trifluoromethyl)phenyl)picolinamido)propanoic acid] the value was 8.2 nM.
The compound `N#Cc1cc(NCc2ccc(Cl)cc2-c2ccc(C(=O)NCCC(=O)O)nc2)ccc1-c1cccc(C(F)(F)F)c1Cl` [Compound 101, 3-(5-(5-chloro-2-(((2′-chloro-2-cyano-3′-(trifluoromethyl)-[1,1′-biphenyl]-4-yl)amino)methyl)phenyl)picolinamido)propanoic acid] gave a Ki of 95 nM.
For `O=C(O)CCNC(=O)c1ccc(-c2cc(C(F)(F)F)ccc2CNc2ccc(-c3ccc(Cl)cc3F)c(C(F)(F)F)c2)cn1` [Compound 126, 3-(5-(2-(((4′-chloro-2′-fluoro-2-(trifluoromethyl)-[1,1′-biphenyl]-4-yl)amino)methyl)-5-(trifluoromethyl)phenyl)picolinamido)propanoic acid] the value was above 5200 nM; for `COc1cc(C(F)(F)F)cc(-c2ccc(C(=O)NCCC(=O)O)nc2)c1CNc1cc(Cl)c(-c2ccc(Cl)cc2)c(Cl)c1` [Compound 160, 3-(5-(3-methoxy-2-(((2,4′,6-trichloro-[1,1′-biphenyl]-4-yl)amino)methyl)-5-(trifluoromethyl)phenyl)picolinamido)propanoic acid], 650 nM.
For `O=C(O)CCNC(=O)c1ccc(-c2cc(C(F)(F)F)ccc2CNc2ccc(-c3ccc(F)cc3F)c(C(F)(F)F)c2)cn1` [Compound 125, 3-(5-(2-(((2′,4′-difluoro-2-(trifluoromethyl)-[1,1′-biphenyl]-4-yl)amino)methyl)-5-(trifluoromethyl)phenyl)picolinamido)propanoic acid] the value was 205 nM; for `O=C(O)CCNC(=O)c1ccc(-c2cc(C(F)(F)F)ccc2CNc2ccc(-c3ccc(Cl)cc3C(F)(F)F)cc2)cn1` [Compound 25], 220 nM.
In turn, `O=C(O)CCNC(=O)c1ccc(-c2cc(C(F)(F)F)cc(C(F)(F)F)c2CNc2ccc(-c3cccc(Cl)c3Cl)cc2)cn1` [Compound 84, 3-(5-(2-(((2′,3′-dichloro-[1,1′-biphenyl]-4-yl)amino)methyl)-3,5-bis(trifluoromethyl)phenyl)picolinamido)propanoic acid] showed a Ki of 36.7 nM.
The compound `O=C(O)CCNC(=O)c1ccc(-c2cc(C(F)(F)F)cc(C(F)(F)F)c2CNc2ccc(-c3ccc(Cl)cc3)c(Cl)c2)cn1` [Compound 76, 3-(5-(2-(((2,4′-dichloro-[1,1′-biphenyl]-4-yl)amino)methyl)-3,5-bis(trifluoromethyl)phenyl)picolinamido)propanoic acid] came in with an inhibition constant Ki of 14.5 nM.
For `CC(C)(C)c1ccc(-c2ccc(NCc3ccc(C(F)(F)F)cc3-c3ccc(C(=O)NCCC(=O)O)nc3)cc2C(F)(F)F)cc1` [Compound 124, 3-(5-(2-(((4′-(tert-butyl)-2-(trifluoromethyl)-[1,1′-biphenyl]-4-yl)amino)methyl)-5-(trifluoromethyl)phenyl)picolinamido)propanoic acid] the value was 285 nM; for `N#Cc1cc(NCc2ccc(Cl)cc2-c2ccc(C(=O)NCCC(=O)O)nc2)ccc1-c1ccc(Cl)c(C(F)(F)F)c1` [Compound 98, 3-(5-(5-chloro-2-(((4′-chloro-2-cyano-3′-(trifluoromethyl)-[1,1′-biphenyl]-4-yl)amino)methyl)phenyl)picolinamido)propanoic acid], 195 nM; for `O=C(O)CCNC(=O)c1ccc(-c2cc(C(F)(F)F)ccc2CNc2ccc(-c3ccc(C(F)(F)F)cc3)c(C(F)(F)F)c2)cn1` [Compound 127, 3-(5-(2-(((2,4′-bis(trifluoromethyl)-[1,1′-biphenyl]-4-yl)amino)methyl)-5-(trifluoromethyl)phenyl)picolinamido)propanoic acid], 70 nM.
For `O=C(O)CCNC(=O)c1ccc(-c2cc(C(F)(F)F)ccc2CNc2ccc(-c3ccc(F)c(C(F)(F)F)c3)c(C(F)(F)F)c2)cn1` [Compound 121, 3-(5-(2-(((4′-fluoro-2,3′-bis(trifluoromethyl)-[1,1′-biphenyl]-4-yl)amino)methyl)-5-(trifluoromethyl)phenyl)picolinamido)propanoic acid] the value was 100 nM; for `O=C(O)CCNC(=O)c1ccc(-c2cc(C(F)(F)F)cc(O)c2CNc2ccc(-c3ccc(Cl)cc3)c(Cl)c2)cn1` [Compound 164, 3-(5-(2-(((2,4′-dichloro-[1,1′-biphenyl]-4-yl)amino)methyl)-3-hydroxy-5-(trifluoromethyl)phenyl)picolinamido)propanoic acid], 61.2 nM.
For `Cc1cc(NCc2c(-c3ccc(C(=O)NCCC(=O)O)nc3)cc(C(F)(F)F)cc2C(F)(F)F)ccc1-c1ccc(Cl)cc1` [Compound 86, 3-(5-(2-(((4′-chloro-2-methyl-[1,1′-biphenyl]-4-yl)amino)methyl)-3,5-bis(trifluoromethyl)phenyl)picolinamido)propanoic acid] the value was 35 nM.

Values taken from US8748624B2, “Picolinamido-propanoic acid derivatives useful as glucagon receptor antagonists” (Janssen Pharmaceutica NV, priority 2011, dated 2014).
